3 molecules from ChEMBL document CHEMBL1201862, “PubChem BioAssay data set” (2004) can be followed below.

Active and inactive are the calls of the source. Some results are limits rather than exact numbers.

The target in assay [1] is G2/mitotic-specific cyclin-B1 (Homo sapiens, UniProt P14635). Description: Counterscreen assay for inhibitors of Wee1 degradation: dose response cell-based assay to identify inhibitors of cyclin B degradation. [Related pubchem assays: 1410, 1321 ]. The assay is classed as functional. On the technique in general: The purpose of a counterscreen is to sort out artefacts and off-target activity.
Sequence of G2/mitotic-specific cyclin-B1 (P14635 whole entry): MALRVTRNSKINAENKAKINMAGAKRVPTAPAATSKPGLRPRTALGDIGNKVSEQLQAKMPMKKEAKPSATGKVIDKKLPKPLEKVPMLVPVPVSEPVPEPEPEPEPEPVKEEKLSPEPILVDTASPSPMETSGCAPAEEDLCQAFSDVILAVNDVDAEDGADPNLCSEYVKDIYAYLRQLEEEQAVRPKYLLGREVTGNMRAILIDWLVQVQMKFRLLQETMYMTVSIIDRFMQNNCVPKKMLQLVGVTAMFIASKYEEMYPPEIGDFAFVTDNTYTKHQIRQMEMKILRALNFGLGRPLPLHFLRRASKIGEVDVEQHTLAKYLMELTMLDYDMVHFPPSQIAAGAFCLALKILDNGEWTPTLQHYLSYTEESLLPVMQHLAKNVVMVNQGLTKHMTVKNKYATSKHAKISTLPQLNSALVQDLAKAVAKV

Another assay concerns the target Wee1-like protein kinase (Homo sapiens, UniProt P30291). Description: Dose Response Cell-based Assay for Inhibitors of Wee1 Degradation. [Related pubchem assays: 1410, 1321 ]. The assay is classed as functional.
Assay [2] can be described thus: THP-1 cell cytotoxicity, dose response, cytotoxicity control for non-replicating M. tuberculosis project (AID 489025). The assay is classed as functional.
Assay [3] in a line: Vero E6 cell cytotoxicity, dose response, cytotoxicity control for non-replicating M. tuberculosis project, secondary assay (AID 492998). The assay is classed as functional, VeroE6. Conditions: Vero C1008.
The nature of assay [4]: HEK-293T viability loss after treatment – luminescence, T-cell screen hits, cytotoxicity control for TCR NF-kB inhibitor project, dose response (AID 489026).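 Note: cells exposed to compound about 14 hours before the viability readout.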 The assay is classed as functional, cell-based.
A further assay can be described thus: cells. Type of assay: functional.
Assay [5] concerns the target Serine/threonine-protein phosphatase PP1-alpha catalytic subunit (Homo sapiens, UniProt P62136). Briefly: inhibition of protein phosphatase 1 activity – biochemical, fluorescence, dose response (AID 2403).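 Note: phosphatase turnover of OMFP into fluorescent 3-O-methylfluorescein.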
The target in assay [6] is T1, Serine/threonine-protein phosphatase (Homo sapiens, UniProt Q9BPW0).
T1 sequence (Q9BPW0 whole entry): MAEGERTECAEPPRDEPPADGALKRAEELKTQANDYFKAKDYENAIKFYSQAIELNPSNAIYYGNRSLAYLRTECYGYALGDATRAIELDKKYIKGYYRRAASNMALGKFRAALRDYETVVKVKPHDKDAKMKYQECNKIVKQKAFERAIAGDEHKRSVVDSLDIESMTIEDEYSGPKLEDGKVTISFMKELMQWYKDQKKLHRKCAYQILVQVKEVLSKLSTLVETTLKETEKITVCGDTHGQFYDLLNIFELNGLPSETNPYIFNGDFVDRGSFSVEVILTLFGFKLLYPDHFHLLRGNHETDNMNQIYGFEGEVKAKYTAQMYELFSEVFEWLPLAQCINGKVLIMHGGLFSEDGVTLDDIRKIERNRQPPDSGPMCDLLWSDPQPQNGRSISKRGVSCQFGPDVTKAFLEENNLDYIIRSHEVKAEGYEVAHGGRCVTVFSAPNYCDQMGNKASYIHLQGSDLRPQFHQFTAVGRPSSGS
Briefly: Counterscreen for inhibitors of PP1: fluorescence-based biochemical high throughput dose response assay to identify inhibitors of Protein Phosphatase 5 (PP5). [Related pubchem assays: 2034 (Summary (PP5 inhibitors)), 1987 (PP5 inhibitors in singlate), 2235 (PP1 inhibitors in singlate)].

A further assay addresses Nonstructural protein 1 (Influenza A virus, UniProt Q194T2). The assay is classed as functional, Influenza A virus (A/California/07/2009(H1N1)).
The nature of assay [7]: viability of uninfected HEp-2 cells – cell-based, HTS, cytotoxicity control for RSV inhibitor project, dose response (AID 2410). Conditions: human respiratory syncytial virus. Type of assay: functional.
The next assay has as its target Vasopressin V1a receptor (Homo sapiens, UniProt P37288). Briefly: Counterscreen for Oxytocin Receptor (OXTR) agonists: Fluorescence-based cell-based high throughput dose response assay to identify agonists of the vasopressin 1 receptor (V1R). [Related pubchem assays: 2435 (Primary screen (OXTR agonists in singlicate)), 434991 (Counterscreen (V1R agonists in triplicate)), 2482 (Summary (OXTR agonists)) …. The assay is classed as functional.

Another assay addresses Oxytocin receptor (Homo sapiens, UniProt P30559). Description: Fluorescence-based cell-based high throughput dose response assay for agonists of the Oxytocin Receptor (OXTR). [Related pubchem assays: 2435 (Primary screen (OXTR agonists in singlicate)), 434991 (Counterscreen (V1R agonists in triplicate)), 2482 (Summary (OXTR agonists)), 434963 (Confirmation screen (OXTR agonists in triplicate))]. The assay is classed as functional.

Assay [8] deals with T2, Corticotropin-releasing factor receptor 2/Corticotropin-releasing factor-binding protein (Homo sapiens, UniProt P24387+Q13324).
T2 sequence (Q13324 whole entry): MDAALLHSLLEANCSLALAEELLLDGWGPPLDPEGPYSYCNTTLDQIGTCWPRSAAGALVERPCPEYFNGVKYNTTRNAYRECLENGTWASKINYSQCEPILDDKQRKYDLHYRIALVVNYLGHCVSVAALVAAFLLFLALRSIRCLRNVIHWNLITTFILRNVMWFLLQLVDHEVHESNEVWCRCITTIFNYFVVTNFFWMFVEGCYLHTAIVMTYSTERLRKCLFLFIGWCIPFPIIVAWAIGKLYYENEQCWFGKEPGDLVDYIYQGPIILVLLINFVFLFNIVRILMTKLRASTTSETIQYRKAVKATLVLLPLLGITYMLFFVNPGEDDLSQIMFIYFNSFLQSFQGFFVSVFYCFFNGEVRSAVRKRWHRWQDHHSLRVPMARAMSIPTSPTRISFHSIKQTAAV
T2 sequence (P24387 whole entry): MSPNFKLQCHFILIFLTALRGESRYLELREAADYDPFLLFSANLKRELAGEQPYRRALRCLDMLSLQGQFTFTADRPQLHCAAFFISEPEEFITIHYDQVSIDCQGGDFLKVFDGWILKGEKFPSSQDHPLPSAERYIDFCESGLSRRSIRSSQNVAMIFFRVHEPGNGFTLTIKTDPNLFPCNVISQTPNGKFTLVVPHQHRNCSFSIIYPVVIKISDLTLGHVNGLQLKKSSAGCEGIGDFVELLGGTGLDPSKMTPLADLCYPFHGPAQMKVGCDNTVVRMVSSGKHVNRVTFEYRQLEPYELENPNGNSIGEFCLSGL
Description: activators of CRF receptor 2 with binding protein – uHTS hits, confirmation (AID 602473). Conditions: read-out: EC50_Mean. Type of assay: functional.

A short description of assay [9]: viability loss in Vero cells – cytotoxicity control for Vif-APOBEC3G degradation inhibitor project, dose response (AID 1117358). Type of assay: functional. Conditions: Vero.

Sequence of Serine/threonine-protein phosphatase PP1-alpha catalytic subunit (P62136 whole entry): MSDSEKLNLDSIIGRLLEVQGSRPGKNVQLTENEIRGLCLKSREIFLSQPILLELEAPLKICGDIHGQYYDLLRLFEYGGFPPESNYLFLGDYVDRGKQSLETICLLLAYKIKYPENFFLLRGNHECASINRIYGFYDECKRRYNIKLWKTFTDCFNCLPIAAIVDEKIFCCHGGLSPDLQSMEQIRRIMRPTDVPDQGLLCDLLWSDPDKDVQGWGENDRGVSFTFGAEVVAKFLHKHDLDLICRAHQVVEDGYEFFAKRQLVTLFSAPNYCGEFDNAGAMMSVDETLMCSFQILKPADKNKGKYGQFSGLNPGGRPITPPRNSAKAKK
Sequence of Oxytocin receptor (P30559 whole entry): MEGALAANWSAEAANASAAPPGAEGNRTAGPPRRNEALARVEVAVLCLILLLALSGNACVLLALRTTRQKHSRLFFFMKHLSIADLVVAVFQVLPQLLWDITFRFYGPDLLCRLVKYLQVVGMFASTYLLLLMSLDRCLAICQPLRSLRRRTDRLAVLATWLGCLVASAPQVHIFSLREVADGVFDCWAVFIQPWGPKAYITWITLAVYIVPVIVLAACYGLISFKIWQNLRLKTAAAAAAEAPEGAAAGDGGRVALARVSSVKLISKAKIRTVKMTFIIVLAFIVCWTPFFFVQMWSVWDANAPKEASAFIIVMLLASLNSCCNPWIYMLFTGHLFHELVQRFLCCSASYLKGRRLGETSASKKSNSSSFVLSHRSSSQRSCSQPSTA
Sequence of Nonstructural protein 1 (Q194T2 whole entry): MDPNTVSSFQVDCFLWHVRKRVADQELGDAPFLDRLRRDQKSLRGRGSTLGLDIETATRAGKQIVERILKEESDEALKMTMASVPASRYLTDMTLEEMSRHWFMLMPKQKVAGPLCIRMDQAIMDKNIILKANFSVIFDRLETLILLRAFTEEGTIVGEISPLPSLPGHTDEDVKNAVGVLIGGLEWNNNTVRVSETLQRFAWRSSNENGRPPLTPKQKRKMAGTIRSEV
Sequence of Vasopressin V1a receptor (P37288 whole entry): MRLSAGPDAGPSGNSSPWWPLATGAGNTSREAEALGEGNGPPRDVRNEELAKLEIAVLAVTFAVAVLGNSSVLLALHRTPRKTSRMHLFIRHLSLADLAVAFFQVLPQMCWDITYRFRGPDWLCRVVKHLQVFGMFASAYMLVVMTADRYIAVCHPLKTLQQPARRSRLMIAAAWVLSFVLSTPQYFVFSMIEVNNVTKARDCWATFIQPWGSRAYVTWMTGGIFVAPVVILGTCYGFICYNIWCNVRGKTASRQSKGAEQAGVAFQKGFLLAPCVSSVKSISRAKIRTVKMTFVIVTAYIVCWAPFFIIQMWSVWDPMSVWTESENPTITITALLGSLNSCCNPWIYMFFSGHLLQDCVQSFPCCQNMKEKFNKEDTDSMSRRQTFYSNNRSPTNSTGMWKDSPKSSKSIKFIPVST
Sequence of Wee1-like protein kinase (P30291 whole entry): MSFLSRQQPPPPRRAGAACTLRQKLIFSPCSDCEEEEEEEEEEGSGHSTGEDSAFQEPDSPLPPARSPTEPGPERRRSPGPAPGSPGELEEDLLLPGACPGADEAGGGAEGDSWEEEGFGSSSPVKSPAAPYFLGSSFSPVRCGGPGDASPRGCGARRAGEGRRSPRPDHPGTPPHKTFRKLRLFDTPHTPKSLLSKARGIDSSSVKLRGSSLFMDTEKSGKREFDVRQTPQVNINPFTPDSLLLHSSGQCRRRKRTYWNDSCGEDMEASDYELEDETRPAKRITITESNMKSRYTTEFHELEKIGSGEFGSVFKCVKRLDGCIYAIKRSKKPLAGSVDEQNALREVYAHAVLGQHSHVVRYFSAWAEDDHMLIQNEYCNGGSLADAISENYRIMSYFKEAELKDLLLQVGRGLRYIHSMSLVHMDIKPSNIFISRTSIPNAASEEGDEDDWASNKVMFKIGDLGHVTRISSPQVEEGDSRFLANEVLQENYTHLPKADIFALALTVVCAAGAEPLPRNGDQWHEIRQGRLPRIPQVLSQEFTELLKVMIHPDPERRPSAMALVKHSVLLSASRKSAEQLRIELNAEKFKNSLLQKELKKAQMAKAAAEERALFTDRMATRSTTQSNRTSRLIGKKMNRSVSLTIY

A word on the CC50: it is the concentration that lowers cell viability or growth by half. Broadly, the IC50 is the concentration needed to halve the response being measured. Turning to `O=C(N=Nc1c(O)[nH]c2ccc(Br)cc12)c1ccccc1-n1cccc1`, the EC50 (in assay [1]; at Wee1-like protein kinase) was > 49.7 µM (not active) throughout. Besides, the CC50 in assay [2] is 1.15 µM (active); in assay [3], 4.28 µM (active). Besides, the results for the IC50 (in [4]; in “cells”) were > 80 µM (inactive) and > 50 µM (active), respectively.
In the case of `O=C(Nc1nc(-c2ccccn2)cs1)C1CC(=O)N(c2ccc3c(c2)OCCO3)C1` (centres undefined), the IC50 in assay [5] is 5.98 µM (active); in assay [6], > 67 µM (not active); on Nonstructural protein 1, 13.5 µM (active).
For the molecule `Cc1[nH]c2ccccc2c1C(=O)CN1C(=O)NC(C)(c2ccc(Cl)cc2Cl)C1=O` (centres undefined), the cytotoxic concentration (CC50) in [7] was 13.9 µM (active); in assay [9], 38.2 µM (active). Also, the EC50 at Vasopressin V1a receptor was > 29.9 µM (not active); on Oxytocin receptor, > 29.9 µM (not active); in [8], 7.59 µM (active).
